Data as given in article PMC8856928, “A new strategy for hit generation: Novel in cellulo active inhibitors of CYP121A1 from Mycobacterium tuberculosis via a combined X-ray crystallographic and phenotypic screening approach (XP screen)” (European Journal of Medicinal Chemistry, 2022).
Structures can show the parent of a compound that is named as a salt. Where two headings read alike, the source gives them in different places.

Legend:
[1] = target: T1, CYP121A1 (Mycobacterium tuberculosis, UniProt P9WPP7); assay: X-ray crystallographic screening (crystal soaking); type: binding; conditions: soaking experiments
T1 construct: made in house

[2] = target: T1, CYP121A1; assay: biochemical; type: binding; conditions: for Kd: UV-Vis titration, compounds screened at 300 μM, Type II Soret shift, 28 °C
[3] = target: T2, Mtb CYP121A1 (Mycobacterium tuberculosis, UniProt P9WPP7); assay: Differential scanning fluorimetry (DSF); type: binding; conditions: read-out: ΔTm
T2 construct: His6; made in house

[4] = target: T1, CYP121A1; type: binding; conditions: Kd for cYY over the cYY control
[5] = tested on: Mtb H37Rv; assay: Antimycobacterial activity assay (resazurin colorimetric, whole-cell); type: cell-based, Mycobacterium tuberculosis; conditions: for MIC90: Mycobacterium tuberculosis, H37RV; for Activity against Mtb: three growth media
[6] = target: T2, Mtb CYP121A1; assay: biochemical; type: binding; conditions: 25 °C, 50 μM CYP121A1, 10% DMSO-d6; read-out: Kd (ITC)
[7] = target: T1, CYP121A1; type: biochemical; conditions: 100 μM compound + 100 μM cYY
[8] = tested on: Mtb strain H37Rv; conditions: comparison with 61; cited from earlier work
[9] = 168 h, Mtb H37Rv, 7H9 with low BSA (0.05% albumin, ADN), one week, read-out: MIC90 7H9-Low BSA
[10] = 168 h, Mtb H37Rv, Middlebrook 7H9 with 10% ADC (BSA rich), one week, read-out: MIC90 c7H9
[11] = 336 h, Mtb H37Rv, Mycobacterial Minimal Medium with cholesterol, two weeks, read-out: MIC90 MMM-Ch
[12] = medium not specified or span over the three growth media tested, read-out: MIC90 against Mtb strain H37Rv

T2 sequence (P9WPP7 whole entry): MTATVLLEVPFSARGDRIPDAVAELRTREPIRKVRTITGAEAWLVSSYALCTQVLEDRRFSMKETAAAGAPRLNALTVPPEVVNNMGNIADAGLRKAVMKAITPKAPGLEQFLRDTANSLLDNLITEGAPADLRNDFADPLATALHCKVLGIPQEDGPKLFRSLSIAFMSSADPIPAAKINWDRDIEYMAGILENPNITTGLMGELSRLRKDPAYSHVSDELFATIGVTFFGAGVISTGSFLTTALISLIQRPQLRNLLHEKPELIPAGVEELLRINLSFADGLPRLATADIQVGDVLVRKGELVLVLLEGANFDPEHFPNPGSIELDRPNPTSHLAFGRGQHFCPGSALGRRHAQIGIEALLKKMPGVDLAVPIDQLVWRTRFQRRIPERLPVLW
T1 sequence (P9WPP7 whole entry): as above

c1ccc2c(CCc3ccncc3)c[nH]c2c1 [Compound 7]
X-ray crystallographic screening result [1]: hits
Kd [2]: 483 ± 76 µM

Clc1ccc2[nH]cc(CCc3ccncc3)c2c1 [Compound 8]
Kd [2]: 5.8 ± 0.7 µM

Brc1ccc2[nH]cc(CCc3ccncc3)c2c1 [Compound 9]
Kd [2]: 3.8 ± 0.5 µM

c1ccc2c(CCc3ccncn3)c[nH]c2c1 [Compound 10]
X-ray crystallographic screening result [1]: hits
ΔTm at 1000 µM [3]: 3.5 °C

c1ccc2c(CCc3ccnc(N4CCOCC4)n3)c[nH]c2c1 [Compound 14, 4-(4-(2-(1H-Indol-3-yl)ethyl)pyrimidin-2-yl)morpholine]
X-ray crystallographic screening result [1]: hits
Soret band shift (416.5 nm) ([2]; UV-Vis screen): lack of shift
Fold increase [4]: 1.5
MIC90 [5, 9]: 25 µM
MIC90 [5, 10]: 25 µM
MIC90 [5, 11]: 12.5 µM
MIC90 [5, 12]: 12.5 to 25 µM
Kd [6]: ~100 µM
Inhibition of CYP121A1 / production of mycocyclosin [7]: markedly reduced the production of mycocyclosin

c1ccc2c(CCc3ccnc(N4CCSCC4)n3)c[nH]c2c1 [Compound 15, 4-(4-(2-(1H-Indol-3-yl)ethyl)pyrimidin-2-yl)thiomorpholine]
MIC90 [5, 9]: 100 µM
MIC90 [5, 10]: 200 µM
MIC90 [5, 11]: 25 µM
MIC90 [5, 12]: 12.5 to 50 µM

Brc1ccc2[nH]cc(CCc3ccnc(N4CCOCC4)n3)c2c1 [Compound 21, 4-(4-(2-(5-Bromo-1H-indol-3-yl)ethyl)pyrimidin-2-yl)morpholine]
X-ray crystallographic screening result [1]: hits

CN1CCN(c2nccc(CCc3c[nH]c4ccc(Br)cc34)n2)CC1 [Compound 23, 5-Bromo-3-(2-(2-(4-methylpiperazin-1-yl)pyrimidin-4-yl)ethyl)-1H-indole]
MIC90 [5, 9]: 25 µM
MIC90 [5, 10]: 100 µM
MIC90 [5, 11]: 12.5 µM
MIC90 [5, 12]: 12.5 to 50 µM

Brc1ccc2[nH]cc(CCc3ccnc(N4CCCO4)n3)c2c1 [Compound 30, 2-(4-(2-(5-Bromo-1H-indol-3-yl)ethyl)pyrimidin-2-yl)isoxazolidine]
MIC90 [5, 9]: 200 µM
MIC90 [5, 10]: 200 µM
MIC90 [5, 11]: 100 µM

COC1CN(c2nccc(CCc3c[nH]c4ccccc34)n2)C1 [Compound 31, 3-(2-(2-(3-Methoxyazetidin-1-yl)pyrimidin-4-yl)ethyl)-1H-indole]
X-ray crystallographic screening result [1]: hits
MIC90 [5, 9]: 25 µM
MIC90 [5, 10]: 50 µM
MIC90 [5, 11]: 25 µM
Activity against Mtb [5]: moderate inhibitors

COC1CN(c2nccc(CCc3c[nH]c4ccc(Cl)cc34)n2)C1 [Compound 32, 5-Chloro-3-(2-(2-(3-methoxyazetidin-1-yl)pyrimidin-4-yl)ethyl)-1H-indole]
MIC90 [5, 9]: 100 µM
MIC90 [5, 10]: 200 µM
MIC90 [5, 11]: 50 µM
MIC90 [5, 12]: 12.5 to 50 µM

COC1CN(c2nccc(CCc3c[nH]c4ccc(Br)cc34)n2)C1 [Compound 33, 5-Bromo-3-(2-(2-(3-methoxyazetidin-1-yl)pyrimidin-4-yl)ethyl)-1H-indole]
X-ray crystallographic screening result [1]: hits

FC(F)(F)Oc1ccc(-c2nccc(CCc3c[nH]c4ccccc34)n2)cc1 [Compound 34, 3-(2-(2-(4-(Trifluoromethoxy)phenyl)pyrimidin-4-yl)ethyl)-1H-indole]
MIC90 [5, 9]: 100 µM
MIC90 [5, 10]: 100 µM
MIC90 [5, 11]: 12.5 µM
MIC90 [5, 12]: 12.5 to 50 µM

Fc1ccc2[nH]cc(CCc3ccncc3)c2c1 [Compound 41]
Kd [2]: 27.3 ± 4.8 µM

Ic1ccc2[nH]cc(CCc3ccncc3)c2c1 [Compound 42, 5-Iodo-3-(2-(pyridin-4-yl)ethyl)-1H-indole]
Kd [2]: 3.2 ± 0.3 µM

COc1ccc2[nH]cc(CCc3ccncc3)c2c1 [Compound 43]
Kd [2]: 105 ± 10 µM

FC(F)(F)Oc1ccc2[nH]cc(CCc3ccncc3)c2c1 [Compound 44, 3-(2-(Pyridin-4-yl)ethyl)-5-(trifluoromethoxy)-1H-indole]
Kd [2]: 12.7 ± 2.3 µM

Nc1[nH]nc(-c2ccc(O)cc2)c1-c1ccc(O)cc1 [Compound 45, reference compound]
ΔTm at 1000 µM [3]: 1 °C
Kd [6]: 20 to 25 µM

Fc1ccc2[nH]cc(CCc3ccnc(N4CCOCC4)n3)c2c1 [Compound 51, 4-(4-(2-(5-Fluoro-1H-indol-3-yl)ethyl)pyrimidin-2-yl)morpholine]
MIC90 [5, 9]: 50 µM
MIC90 [5, 10]: 25 µM
MIC90 [5, 11]: 25 µM
Activity against Mtb [5]: moderate inhibitors

FC(F)(F)Oc1ccc2[nH]cc(CCc3ccnc(N4CCOCC4)n3)c2c1 [Compound 53, 4-(4-(2-(5-(Trifluoromethoxy)-1H-indol-3-yl)ethyl)pyrimidin-2-yl)morpholine]
MIC90 [5, 9]: 25 µM
MIC90 [5, 10]: 25 µM
MIC90 [5, 11]: 50 µM
Activity against Mtb [5]: moderate inhibitors

Oc1ccc2[nH]cc(CCc3ccnc(N4CCOCC4)n3)c2c1 [Compound 55, 3-(2-(2-Morpholinopyrimidin-4-yl)ethyl)-1H-indol-5-ol]
ΔTm at 1000 µM [3]: 0.5 °C

Cn1cc(CCc2ccnc(N3CCOCC3)n2)c2ccccc21 [Compound 57, 4-(4-(2-(1-Methyl-1H-indol-3-yl)ethyl)pyrimidin-2-yl)morpholine]
MIC90 [5, 9]: 25 µM
MIC90 [5, 10]: 50 µM
MIC90 [5, 11]: 25 µM
Activity against Mtb [5]: moderate inhibitors

c1ccc2c(CCc3ccnc(N4CC5CCC(C4)O5)n3)c[nH]c2c1 [Compound 58, 3-(4-(2-(1H-Indol-3-yl)ethyl)pyrimidin-2-yl)-8-oxa-3-azabicyclo[3.2.1]octane]
MIC90 [5, 9]: 50 µM
MIC90 [5, 10]: 200 µM
MIC90 [5, 11]: 25 µM
Activity against Mtb [5]: active, but showed much reduced potency in BSA rich medium

c1ccc2c(CCc3ccnc(N4CCCOCC4)n3)c[nH]c2c1 [Compound 60, 4-(4-(2-(1H-Indol-3-yl)ethyl)pyrimidin-2-yl)-1,4-oxazepane]
MIC90 [5, 9]: 50 µM
MIC90 [5, 10]: 25 µM
MIC90 [5, 11]: 25 µM
Activity against Mtb [5]: moderate inhibitors

c1ccc2c(c1)OCCN2c1nccc(CCc2c[nH]c3ccccc23)n1 [Compound 61, 4-(4-(2-(1H-Indol-3-yl)ethyl)pyrimidin-2-yl)-3,4-dihydro-2H-benzo[b][1,4]oxazine]
MIC90 [5, 9]: 25 µM
MIC90 [5, 10]: 12.5 µM
MIC90 [5, 11]: 6.25 µM
MIC90 ([5]; converted from μM value, read-out: MIC90 against Mtb strain H37Rv): ~2.2 µg/mL
MIC90 [5, 12]: 6.25 µM
Activity against Mtb [5]: moderate inhibitors
Inhibition of CYP121A1 / production of mycocyclosin [7]: markedly reduced the production of mycocyclosin

Brc1ccc2c(c1)N(c1nccc(CCc3c[nH]c4ccccc34)n1)CCO2 [Compound 63, 4-(4-(2-(1H-Indol-3-yl)ethyl)pyrimidin-2-yl)-6-bromo-3,4-dihydro-2H-benzo[b][1,4]oxazine]
MIC90 [5, 9]: 50 µM
MIC90 [5, 10]: 25 µM
MIC90 [5, 11]: 50 µM
Activity against Mtb [5]: moderate inhibitors

CC(=O)n1cc(CCc2ccnc(N3CCOCC3)n2)c2ccccc21 [Compound 64, 1-(3-(2-(2-Morpholinopyrimidin-4-yl)ethyl)-1H-indol-1-yl)ethan-1-one]
MIC90 [5, 9]: > 400 µM
MIC90 [5, 10]: > 400 µM
MIC90 [5, 11]: > 400 µM
Activity against Mtb [5]: essentially lost all activity

c1ccc2c(CCc3nc4c(c(N5CCOCC5)n3)CNC4)c[nH]c2c1 [Compound 81, 4-(2-(2-(1H-Indol-3-yl)ethyl)-6,7-dihydro-5H-pyrrolo[3,4-d]pyrimidin-4-yl)morpholine hydrochloride]
ΔTm at 1000 µM [3]: 3.5 °C

c1ccc2c(CCc3nc4c(c(N5CC6CCC(C5)O6)n3)CNC4)c[nH]c2c1 [Compound 82, 3-(2-(2-(1H-Indol-3-yl)ethyl)-6,7-dihydro-5H-pyrrolo[3,4-d]pyrimidin-4-yl)-8-oxa-3-azabicyclo[3.2.1]octane hydrochloride]
ΔTm at 1000 µM [3]: 2.4 °C

c1ccc2c(CCc3nc4c(c(N5CCOCC5)n3)CCNC4)c[nH]c2c1 [Compound 83, 4-(2-(2-(1H-Indol-3-yl)ethyl)-5,6,7,8-tetrahydropyrido[3,4-d]pyrimidin-4-yl)morpholine hydrochloride]
ΔTm at 1000 µM [3]: 1 °C

CO[C@H]1/C=C/O[C@@]2(C)Oc3c(C)c(O)c4c(O)c(c(/C=N/N5CCN(C)CC5)c(O)c4c3C2=O)NC(=O)/C(C)=C\C=C\[C@H](C)[C@H](O)[C@@H](C)[C@@H](O)[C@@H](C)[C@H](OC(C)=O)[C@@H]1C [Rifampicin, reference compound]
MIC90 [5, 9]: 0.013 µM
MIC90 [5, 10]: 0.023 µM
MIC90 [5, 11]: 0.013 µM

Clc1ccccc1C(c1ccccc1)(c1ccccc1)n1ccnc1 [clotrimazole]
MIC90 of azole anti-fungal drugs [8]: 11 µg/mL

Clc1ccc(COC(Cn2ccnc2)c2ccc(Cl)cc2Cl)cc1 (centres unmarked) [econazole]
MIC90 of azole anti-fungal drugs [8]: 8 µg/mL

Clc1ccc(COC(Cn2ccnc2)c2ccc(Cl)cc2Cl)c(Cl)c1 (centres unmarked) [miconazole]
MIC90 of azole anti-fungal drugs [8]: 8 µg/mL
